Assay results taken from publication PMC11054573, “Identification of Ureidocoumarin-Based Selective Discoidin Domain Receptor 1 (DDR1) Inhibitors via Drug Repurposing Approach, Biological Evaluation, and In Silico Studies” (Pharmaceuticals, 2024).
Where two headings read alike, the source gives them in different places.

Legend:
DDR1 [1] = biological target: T1, DDR1 (Homo sapiens, UniProt Q08345); test: RBC radiometric HotSpot kinase assay, DDR1; settings: for inhibition at 10 µM: read-out: % Inhibition at 10 μM (SEM) DDR1; for SI: Selectivity index (IC50 DDR2/IC50 DDR1): DDR1 over DDR2
T1 sequence (Q08345 19-913): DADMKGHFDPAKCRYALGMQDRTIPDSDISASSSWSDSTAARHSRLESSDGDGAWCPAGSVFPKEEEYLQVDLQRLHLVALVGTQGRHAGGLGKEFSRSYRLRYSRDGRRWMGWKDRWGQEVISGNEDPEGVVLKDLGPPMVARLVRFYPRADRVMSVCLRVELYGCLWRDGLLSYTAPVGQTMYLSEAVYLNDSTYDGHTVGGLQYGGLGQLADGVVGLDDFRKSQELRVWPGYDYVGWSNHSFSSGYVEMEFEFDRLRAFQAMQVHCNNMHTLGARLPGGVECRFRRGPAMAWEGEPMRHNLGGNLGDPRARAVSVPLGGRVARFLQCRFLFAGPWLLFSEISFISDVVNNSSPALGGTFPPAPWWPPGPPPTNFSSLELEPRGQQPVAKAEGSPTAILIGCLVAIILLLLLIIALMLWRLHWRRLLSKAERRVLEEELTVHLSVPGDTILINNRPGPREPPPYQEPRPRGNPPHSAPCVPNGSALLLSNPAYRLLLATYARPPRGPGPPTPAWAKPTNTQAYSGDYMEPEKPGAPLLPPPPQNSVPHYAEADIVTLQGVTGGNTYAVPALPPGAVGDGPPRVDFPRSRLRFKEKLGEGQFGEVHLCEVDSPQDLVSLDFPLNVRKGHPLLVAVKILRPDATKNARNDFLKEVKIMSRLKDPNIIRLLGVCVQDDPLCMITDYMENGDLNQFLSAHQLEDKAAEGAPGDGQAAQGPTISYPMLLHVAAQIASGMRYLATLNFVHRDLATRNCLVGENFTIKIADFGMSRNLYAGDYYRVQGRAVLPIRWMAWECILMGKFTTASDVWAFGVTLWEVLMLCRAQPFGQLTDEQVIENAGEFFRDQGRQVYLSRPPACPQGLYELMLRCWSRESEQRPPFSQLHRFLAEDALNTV
Procedure: (§4) All compounds in this study were tested against DDR1 and DDR2 at a 10 µM dose at Reaction Biology Corporation (RBC, Malvern, PA, USA) employing the radiometric HotSpot Kinase assay protocol (Table 1).

DDR2 = biological target: T2, DDR2 (Homo sapiens, UniProt Q16832); test: RBC radiometric HotSpot kinase assay, DDR2; settings: for inhibition at 10 µM: read-out: % Inhibition at 10 μM (SEM) DDR2
T2 sequence (Q16832 22-855): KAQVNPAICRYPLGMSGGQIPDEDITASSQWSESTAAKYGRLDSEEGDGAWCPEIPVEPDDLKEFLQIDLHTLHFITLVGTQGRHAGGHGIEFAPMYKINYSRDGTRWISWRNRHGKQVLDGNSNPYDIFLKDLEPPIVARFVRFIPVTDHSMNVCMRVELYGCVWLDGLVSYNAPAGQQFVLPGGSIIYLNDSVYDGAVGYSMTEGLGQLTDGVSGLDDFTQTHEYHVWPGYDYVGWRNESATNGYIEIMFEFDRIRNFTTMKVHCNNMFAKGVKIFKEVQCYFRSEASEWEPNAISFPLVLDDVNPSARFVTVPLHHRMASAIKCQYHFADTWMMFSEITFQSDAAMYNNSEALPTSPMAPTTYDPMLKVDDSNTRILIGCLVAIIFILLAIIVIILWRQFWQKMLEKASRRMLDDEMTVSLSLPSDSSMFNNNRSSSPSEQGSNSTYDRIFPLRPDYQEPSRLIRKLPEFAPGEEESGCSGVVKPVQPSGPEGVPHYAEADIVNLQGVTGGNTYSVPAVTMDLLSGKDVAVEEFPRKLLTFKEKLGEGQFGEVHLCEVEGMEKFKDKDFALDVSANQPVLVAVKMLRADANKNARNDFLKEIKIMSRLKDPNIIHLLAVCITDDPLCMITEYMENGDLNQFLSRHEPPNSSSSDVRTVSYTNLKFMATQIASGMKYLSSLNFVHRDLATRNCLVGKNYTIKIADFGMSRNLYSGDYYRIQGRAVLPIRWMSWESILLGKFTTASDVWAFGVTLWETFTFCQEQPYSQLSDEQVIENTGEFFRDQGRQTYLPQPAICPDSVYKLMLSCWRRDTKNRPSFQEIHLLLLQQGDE
Procedure: as §4

DDR1 [2] = biological target: T1, DDR1; design: purchased Reaction Biology Corporation (RBC, Malvern, PA, USA); settings: cited from earlier work
[3] = system: HCT116 colon cancer cells; test: NCI SRB antiproliferative assay, HCT116; type: cell-based; settings: Homo sapiens, HCT-116; for inhibition at 10 µM: read-out: % Growth inhibition at 10 µM HCT116
Procedure: (§1) Six members, 3a, 3g–j, and 3q, out of the investigated compounds were further evaluated for their antiproliferative effects against human cancer cell lines, including leukemia (K562), colon cancer (HCT116), non-small cell lung (NSCL) cancer (A549, NCI-H23 and NCI-H460), and breast cancer (MCF-7 and T47D) cells. The tested cell lines’ choice depended on their elevated DDR1 expression levels. The cell lines were all treated with a 10 µM concentration of the tested compounds, and the results were expressed as the percentage of growth inhibition (%GI) (Table 4).
(§2) Inhibition of the tumor relevant carbonic anhydrases IX and XII may be one of these additional mechanisms.
(§3) The evaluation of the antiproliferative activities of compounds 3a, 3g–j, and 3q over a panel of DDR1-dependent cell lines was conducted employing the sensitive Sulforhodamine B (SRB) assay at the National Cancer Institute (NCI), Bethesda, Maryland, USA, following the standard protocol.

[4] = system: DDR1-dependent cancer cell lines; test: NCI SRB antiproliferative assay, whole panel of DDR1-dependent cell lines; type: cell-based, human; settings: Homo sapiens; span over the seven cell lines; read-out: GI50 over all tested cell lines
Procedure: as §1, §2, §3

[5] = system: NCI-H23 non-small cell lung cancer cells; test: NCI SRB antiproliferative assay, NCI-H23; type: cell-based; settings: Homo sapiens; for inhibition at 10 µM: read-out: % Growth inhibition at 10 µM NCI-H23
Procedure: as §1, §2, §3

K562 leukemia cells = test: NCI SRB antiproliferative assay, K562; type: cell-based; settings: Homo sapiens; for inhibition at 10 µM: read-out: % Growth inhibition at 10 µM K562
Procedure: as §1, §2, §3

[6] = system: A549 non-small cell lung cancer cells; test: NCI SRB antiproliferative assay, A549; type: cell-based; settings: Homo sapiens; for inhibition at 10 µM: read-out: % Growth inhibition at 10 µM A549
Procedure: as §1, §2, §3

T47D breast cancer cells = test: NCI SRB antiproliferative assay, T47D; type: cell-based; settings: Homo sapiens; for inhibition at 10 µM: read-out: % Growth inhibition at 10 µM T47D
Procedure: as §1, §2, §3

[7] = system: MCF-7 breast cancer cells; test: NCI SRB antiproliferative assay, MCF-7; type: cell-based; settings: Homo sapiens, MCF7; for inhibition at 10 µM: read-out: % Growth inhibition at 10 µM MCF-7
Procedure: as §1, §2, §3

[8] = system: NCI-H460 non-small cell lung cancer cells; test: NCI SRB antiproliferative assay, NCI-H460; type: cell-based; settings: Homo sapiens; for inhibition at 10 µM: read-out: % Growth inhibition at 10 µM NCI-H460
Procedure: as §1, §2, §3

## O=C(Nc1ccc2oc(=O)ccc2c1)Nc1c(Br)cc(F)cc1Br [Compound 3p]
DDR1 [1]
  inhibition at 10 µM: 15%
DDR2
  inhibition at 10 µM: 17.1%

## Cn1ccc(-c2cncc(CNc3cc(C(=O)Nc4cccc(OC(F)(F)F)c4)ccc3F)c2)n1 [VU6015929, reference compound]
DDR2
  IC50: 1.55 nM

## CCN1CCN(Cc2ccc(NC(=O)Nc3nc4ccc(Oc5ccnc(C(=O)NC)c5)cc4s3)cc2C(F)(F)F)CC1 [KST016366]
DDR1 [2]
  IC50: 26.5 nM

## O=C(Nc1cc(Cl)cc(Cl)c1)Nc1ccc2oc(=O)ccc2c1 [Compound 3j]
[3]; five-dose testing
  GI50: 2310 nM
[3]
  inhibition at 10 µM: 98.6%
[4]
  GI50: 1930 to 2900 nM
[5]; five-dose testing
  GI50: 2670 nM
[5]
  inhibition at 10 µM: 106%
K562 leukemia cells; five-dose testing
  GI50: 2340 nM
K562 leukemia cells
  inhibition at 10 µM: 84.6%
[6]; five-dose testing
  GI50: 2900 nM
[6]
  inhibition at 10 µM: 83.8%
DDR1 [1]
  IC50: 2520 nM
  SI: Selectivity index (IC50 DDR2/IC50 DDR1): >4.0
  inhibition at 10 µM: 48.5%
T47D breast cancer cells; five-dose testing
  GI50: 1930 nM
T47D breast cancer cells
  inhibition at 10 µM: 96.5%
[7]; five-dose testing
  GI50: 2280 nM
[7]
  inhibition at 10 µM: 94.5%
DDR2
  IC50: > 10000 nM
  inhibition at 10 µM: 23.3%
[8]; five-dose testing
  GI50: 2270 nM
[8]
  inhibition at 10 µM: 98.8%

## O=C(Nc1ccc(F)cc1)Nc1ccc2oc(=O)ccc2c1 [Compound 3c]
DDR1 [1]
  inhibition at 10 µM: 25.6%
DDR2
  inhibition at 10 µM: 15.9%

## Cc1cccc(Cl)c1NC(=O)Nc1ccc2oc(=O)ccc2c1 [Compound 3o]
DDR1 [1]
  inhibition at 10 µM: 15.7%
DDR2
  inhibition at 10 µM: -1.4%

## Cc1cc(C)cc(NC(=O)Nc2ccc3oc(=O)ccc3c2)c1 [Compound 3k]
DDR1 [1]
  inhibition at 10 µM: 33.8%
DDR2
  inhibition at 10 µM: 17.3%

## O=C(Nc1cccc(C(F)(F)F)c1)Nc1ccc2oc(=O)ccc2c1 [Compound 3a]
[3]
  inhibition at 10 µM: 20.9%
[5]
  inhibition at 10 µM: 13.2%
K562 leukemia cells
  inhibition at 10 µM: 33.2%
[6]
  inhibition at 10 µM: 10.4%
DDR1 [1]
  IC50: 321 nM
  SI: Selectivity index (IC50 DDR2/IC50 DDR1): 7.5
  inhibition at 10 µM: 92.7%
T47D breast cancer cells
  inhibition at 10 µM: 24.6%
[7]
  inhibition at 10 µM: 29.2%
DDR2
  IC50: 2390 nM
  inhibition at 10 µM: 83.6%
[8]
  inhibition at 10 µM: 15.8%

## CCCCc1ccc(NC(=O)Nc2ccc3oc(=O)ccc3c2)cc1 [Compound 3e]
DDR1 [1]
  inhibition at 10 µM: 15.4%
DDR2
  inhibition at 10 µM: 3.07%

## O=C(Nc1ccc2oc(=O)ccc2c1)c1ccc(Cl)c(C(F)(F)F)c1 [Compound 4a]
DDR1 [1]
  inhibition at 10 µM: 5.82%
DDR2
  inhibition at 10 µM: 3.77%

## O=C(Nc1ccc2oc(=O)ccc2c1)Nc1ccc(F)cc1F [Compound 3m]
DDR1 [1]
  inhibition at 10 µM: 5.83%
DDR2
  inhibition at 10 µM: 0.78%

## O=C(Nc1ccc2oc(=O)ccc2c1)Nc1ccc(Cl)cc1Cl [Compound 3l]
DDR1 [1]
  inhibition at 10 µM: 19%
DDR2
  inhibition at 10 µM: 17.1%
